{
  "source": "patent US9149536B2",
  "about": "“Conjugated antimicrobial agents” (priority 2009, dated 2015)",
  "key": {"B. subtilis ATCC 6633 [1]": {"system": "B. subtilis ATCC 6633", "assay": "MIC, double-microdilution, B. subtilis ATCC 6633", "assay_type": "cell-based", "details": "Bacillus subtilis, ATCC6633; Table 4; read-out: MIC B. subtilis ATCC 6633"}, "[2]": {"system": "bacterial protein synthesis", "assay": "In vitro coupled transcription/translation assay, E. coli S30 extract", "assay_type": "biochemical", "details": "luciferase readout", "description": "Protein translation inhibition by the different compounds was quantified in a coupled transcription/translation assay by using E. coli S30 extracts for circular DNA with the pBEST/uc plasmid (Promega), according to the manufacturer's protocol.\nTranslation reactions (25 μl) that contained variable concentrations of the tested compound were incubated at 37° C. for 60 minutes, cooled on ice for 5 minutes, and diluted with a dilution reagent (tris-phosphate buffer (25 mM, pH 7.8), DTT (2 mM), 1,2-diaminocyclohexanetetraacetate (2 mM), glycerol (10%), Triton X-100 (1%) and BSA (1 mg/ml)) into 96-well plates. The luminescence was measured immediately after the addition of the Luciferase Assay Reagent (50 μl; Promega), and the light emission was recorded with a Victor3™ Plate Reader (Perkin-Elmer). The concentration of half-maximal inhibition (IC50) was obtained from fitting concentration-response curves to the data of at least two independent experiments by using Grafit 5 software (Leatherbarrow, R. J. Erithacus Software Ltd: Horley, U.K., 2001).\n(§1) Relaxation assays were conducted with E. coli TopoIV."}, "E. coli DNA gyrase": {"biological_target": "E. coli DNA gyrase (Escherichia coli, UniProt P0AES4+P0AES6)", "sequence (P0AES4 whole entry, one chain of several)": "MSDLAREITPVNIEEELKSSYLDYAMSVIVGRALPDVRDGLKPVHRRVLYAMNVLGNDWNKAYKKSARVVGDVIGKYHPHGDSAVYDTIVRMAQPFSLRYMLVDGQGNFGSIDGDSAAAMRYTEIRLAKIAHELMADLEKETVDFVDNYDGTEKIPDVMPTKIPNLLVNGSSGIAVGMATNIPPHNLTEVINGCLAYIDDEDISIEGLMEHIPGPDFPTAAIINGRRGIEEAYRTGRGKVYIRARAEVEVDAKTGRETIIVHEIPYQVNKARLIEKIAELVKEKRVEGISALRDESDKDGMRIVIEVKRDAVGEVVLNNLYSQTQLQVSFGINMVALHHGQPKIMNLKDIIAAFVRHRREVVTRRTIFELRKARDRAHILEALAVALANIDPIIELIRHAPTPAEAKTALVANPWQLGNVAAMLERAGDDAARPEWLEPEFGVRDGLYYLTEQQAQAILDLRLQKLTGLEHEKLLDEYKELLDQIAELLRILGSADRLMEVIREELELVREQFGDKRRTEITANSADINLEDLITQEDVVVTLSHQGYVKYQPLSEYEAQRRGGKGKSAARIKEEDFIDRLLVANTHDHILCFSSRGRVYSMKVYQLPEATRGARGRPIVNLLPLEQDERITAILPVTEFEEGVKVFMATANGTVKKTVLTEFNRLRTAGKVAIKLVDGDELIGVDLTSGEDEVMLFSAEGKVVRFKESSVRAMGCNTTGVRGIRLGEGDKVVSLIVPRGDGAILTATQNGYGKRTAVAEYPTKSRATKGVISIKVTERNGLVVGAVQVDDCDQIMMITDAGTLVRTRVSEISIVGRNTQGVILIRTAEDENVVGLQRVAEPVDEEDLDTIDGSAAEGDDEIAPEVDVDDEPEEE", "details": "supercoiling assay, relaxed pBR322"}, "E. coli R477-100": {"system": "E. coli R477-100", "assay": "MIC, double-microdilution, E. coli R477-100", "assay_type": "cell-based, Escherichia coli", "details": "Escherichia coli, R477100, read-out: MIC E. coli R477-100"}, "MRSA ATCC 43300": {"system": "MRSA ATCC 43300", "assay": "microbe, parasite or virus in culture", "assay_type": "cell-based, S. aureus", "details": "Staphylococcus aureus, read-out: MIC MRSA ATCC 43300"}, "E. coli AG100A": {"system": "E. coli AG100A", "assay": "MIC, double-microdilution, E. coli AG100A", "assay_type": "cell-based, Escherichia coli", "details": "Escherichia coli, AG100A, read-out: MIC E. coli AG100A, Table 4; kanamycin resistant, APH(3′)-I"}, "E. coli XL1 blue/pSF815": {"system": "E. coli XL1 blue/pSF815", "assay": "microbe, parasite or virus in culture", "assay_type": "cell-based", "details": "Escherichia coli, XL1BLUE/PSF815, read-out: MIC XL1 blue/pSF815", "description": "(§2) For this purpose, exemplary conjugates, according to some embodiments of the present invention, were tested against five isogenic E. coli strains. E. coli (pSF815) and E. coli (pET9d) are laboratory resistant strains derived by transformation of E. coli XL1 blue (background strain) with the pSF815 and pET9d plasmids, respectively. […] The last two isogenic strains used were E. coli BL21 (background strain) and E. coli (pETSACG1). […] These three enzymes are among the most prevalent modes of resistance found in aminoglycosides resistance strains.\n(§3) The MIC ratios were calculated by dividing the MIC value against resistant strain to that against the respective background strain."}, "E. coli XL1 blue": {"system": "E. coli XL1 blue", "assay": "microbe, parasite or virus in culture", "assay_type": "cell-based", "details": "Escherichia coli, XL1BLUE; background strain; read-out: MIC XL1 blue", "description": "as §2, §3"}, "E. coli BL21/pETSACG1": {"system": "E. coli BL21/pETSACG1", "assay": "microbe, parasite or virus in culture", "assay_type": "cell-based", "description": "as §2, §3"}, "E. coli BL21": {"system": "E. coli BL21", "assay": "microbe, parasite or virus in culture", "assay_type": "cell-based", "details": "Escherichia coli, BL21; background strain", "description": "as §2, §3"}, "E. coli XL1 blue/pET9d": {"system": "E. coli XL1 blue/pET9d", "assay": "microbe, parasite or virus in culture", "assay_type": "cell-based", "description": "as §2, §3"}, "APH(3′)-IIIa enzyme": {"biological_target": "T1, APH(3′)-IIIa enzyme (Enterococcus faecalis, UniProt P0A3Y5)", "T1 construct": "made in house; host or cells: E. coli BL21 carrying pETSACG1 (inferred)", "T1 sequence (P0A3Y5 whole entry)": "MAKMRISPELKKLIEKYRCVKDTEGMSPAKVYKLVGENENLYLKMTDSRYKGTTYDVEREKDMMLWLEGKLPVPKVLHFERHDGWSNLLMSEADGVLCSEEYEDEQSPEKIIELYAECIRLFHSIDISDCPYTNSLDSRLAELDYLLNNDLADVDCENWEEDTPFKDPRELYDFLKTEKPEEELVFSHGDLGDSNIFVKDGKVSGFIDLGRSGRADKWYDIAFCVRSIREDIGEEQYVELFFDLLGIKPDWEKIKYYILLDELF", "assay_type": "biochemical", "details": "compound as substrate of APH(3′)-IIIa"}, "E. coli ATCC 25922": {"system": "E. coli ATCC 25922", "assay": "MIC, double-microdilution, E. coli ATCC 25922", "assay_type": "cell-based, Escherichia coli", "details": "Escherichia coli, ATCC25922; Table 4; read-out: MIC E. coli ATCC 25922"}, "E. coli TopoIV": {"biological_target": "T2, E. coli TopoIV (Escherichia coli, UniProt P0AFI2+P20083)", "T2 construct": "purchased Inspiralis Ltd", "T2 sequence (P0AFI2 whole entry)": "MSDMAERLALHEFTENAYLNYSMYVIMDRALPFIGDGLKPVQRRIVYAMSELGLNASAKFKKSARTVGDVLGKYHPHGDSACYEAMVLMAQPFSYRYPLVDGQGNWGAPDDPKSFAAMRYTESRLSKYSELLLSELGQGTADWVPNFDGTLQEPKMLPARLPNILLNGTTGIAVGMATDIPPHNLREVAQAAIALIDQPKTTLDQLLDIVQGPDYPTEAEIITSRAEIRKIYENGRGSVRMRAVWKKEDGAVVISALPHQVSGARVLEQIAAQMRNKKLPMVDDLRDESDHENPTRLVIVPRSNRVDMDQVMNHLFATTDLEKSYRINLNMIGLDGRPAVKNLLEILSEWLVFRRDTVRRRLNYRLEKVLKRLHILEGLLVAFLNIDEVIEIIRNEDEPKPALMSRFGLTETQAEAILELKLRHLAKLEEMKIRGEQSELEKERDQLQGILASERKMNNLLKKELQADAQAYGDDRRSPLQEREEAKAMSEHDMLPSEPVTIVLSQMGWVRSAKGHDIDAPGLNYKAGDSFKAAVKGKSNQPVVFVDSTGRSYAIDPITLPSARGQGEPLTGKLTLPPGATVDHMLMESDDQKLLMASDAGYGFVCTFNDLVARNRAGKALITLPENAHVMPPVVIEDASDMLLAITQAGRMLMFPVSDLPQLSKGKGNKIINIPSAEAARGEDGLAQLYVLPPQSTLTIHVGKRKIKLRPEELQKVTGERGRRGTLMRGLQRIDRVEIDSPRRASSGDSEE", "T2 sequence (P20083 whole entry)": "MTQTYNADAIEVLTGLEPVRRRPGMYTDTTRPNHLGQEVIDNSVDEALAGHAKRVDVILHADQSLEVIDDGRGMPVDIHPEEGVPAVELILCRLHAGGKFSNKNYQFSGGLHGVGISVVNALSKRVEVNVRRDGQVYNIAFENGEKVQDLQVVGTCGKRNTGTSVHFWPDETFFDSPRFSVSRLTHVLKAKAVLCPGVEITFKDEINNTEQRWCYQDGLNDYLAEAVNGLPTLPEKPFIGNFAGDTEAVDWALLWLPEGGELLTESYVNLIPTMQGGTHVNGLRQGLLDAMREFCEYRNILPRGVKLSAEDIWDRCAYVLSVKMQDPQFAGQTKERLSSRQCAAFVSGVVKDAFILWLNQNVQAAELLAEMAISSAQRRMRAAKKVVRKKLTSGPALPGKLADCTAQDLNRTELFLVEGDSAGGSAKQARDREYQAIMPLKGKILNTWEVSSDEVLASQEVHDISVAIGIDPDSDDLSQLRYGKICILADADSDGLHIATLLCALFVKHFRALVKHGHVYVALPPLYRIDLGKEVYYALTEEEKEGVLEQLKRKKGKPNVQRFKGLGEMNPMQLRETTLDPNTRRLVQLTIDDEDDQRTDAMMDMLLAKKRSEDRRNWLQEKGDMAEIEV", "assay": "TopoIV relaxation assay", "assay_type": "biochemical", "details": "relaxation assay, supercoiled pBR322", "description": "DNA relaxation activity was assayed with supercoiled pBR322 DNA as a substrate (Inspiralis Ltd) according to the manufacturer's protocol. The standard reaction mixture (20 μl) contained 40 mM HEPES-KOH pH 7.6, 100 mM potassium glutamate, 10 mM Mg(OAc)2, 10 mM dithiothreitol, 1 mM ATP, 50 μg/ml albumin, 5 ng/μl […] pBR322, and TopoIV protein. The reaction mixture was incubated at 37° C. for 30 minutes, and then was terminated by addition of 2 μl 0.5 M EDTA, 3.5 μl loading dye and 20 μl chloroform/isoamyl alcohol (24:1) mixture. […] One unit of relaxation activity was defined as the amount of TopoIV required to relax 0.1 μg of plasmid in 30 minutes.\nas §1"}, "E. coli AG100B": {"system": "E. coli AG100B", "assay": "MIC, double-microdilution, E. coli AG100B", "assay_type": "cell-based, Escherichia coli", "details": "Escherichia coli, AG100B, read-out: MIC E. coli AG100B, Table 4; kanamycin resistant, APH(3′)-I", "source_text": "AG100B and AG100A are two kanamycin resistant Escherichia coli strains expressing APH(3′)-I aminoglycoside resistance enzyme."}, "E. coli ATCC 35218": {"system": "E. coli ATCC 35218", "assay": "microbe, parasite or virus in culture", "assay_type": "cell-based", "details": "for MIC: Escherichia coli", "description": "(§4) In parallel, MIC evolution during these subcultures was compared concomitantly with each new generation, using bacteria harvested from control wells (wells cultured without antimicrobial agent from the previous generation). The relative MIC was calculated for each experiment from the ratio of MIC obtained for a given subculture to that obtained for first-time exposure."}, "B. subtilis ATCC 6633 [3]": {"system": "B. subtilis ATCC 6633", "assay": "microbe, parasite or virus in culture", "assay_type": "cell-based", "details": "for MIC: Bacillus subtilis", "description": "as §4"}, "[4]": {"details": "MIC resistant strain divided by MIC background strain"}, "[5]": {"details": "MIC of subculture to MIC upon first exposure"}},
  "note": "Where two headings read alike, the source gives them in different places.",
  "data": [
    {"molecule": "NC[C@@H]1O[C@H](O[C@H]2[C@@H](O)[C@H](O[C@@H]3[C@@H](O)[C@H](N)C[C@H](N)[C@H]3O[C@H]3O[C@H](CN)[C@@H](O)[C@H](O)[C@H]3N)O[C@@H]2CO)[C@H](N)[C@@H](O)[C@@H]1O", "note": "[NeoB, neomycin B, reference compound]", "values": [
      {"measurement": "MIC", "setting": "B. subtilis ATCC 6633 [1]", "result": 1.5, "unit": "mg/L"},
      {"measurement": "IC50", "setting": "[2]", "result": "10.5 ± 0.1", "unit": "µM"},
      {"measurement": "DNA gyrase IC50", "setting": "E. coli DNA gyrase", "result": "inactive"},
      {"measurement": "MIC", "setting": "E. coli R477-100", "result": 24, "unit": "mg/L"},
      {"measurement": "MIC", "setting": "MRSA ATCC 43300", "result": 384, "unit": "mg/L"},
      {"measurement": "MIC", "setting": "E. coli AG100A", "result": 96, "unit": "mg/L"},
      {"measurement": "MIC", "setting": "E. coli XL1 blue/pSF815", "result": "> 384", "unit": "mg/L"},
      {"measurement": "MIC", "setting": "E. coli XL1 blue", "result": 6, "unit": "mg/L"},
      {"measurement": "MIC", "setting": "E. coli BL21/pETSACG1; Escherichia coli, BL21/PETSACG1, read-out: MIC BL21/pETSACG1", "result": 48, "unit": "mg/L"},
      {"measurement": "MIC ratio BL21/pETSACG1 to BL21", "setting": "E. coli BL21/pETSACG1; [4]", "result": 8},
      {"measurement": "MIC", "setting": "E. coli BL21", "result": 6, "unit": "mg/L"},
      {"measurement": "MIC", "setting": "E. coli XL1 blue/pET9d; Escherichia coli, XL1BLUE/PET9D, read-out: MIC XL1 blue/pET9d", "result": 96, "unit": "mg/L"},
      {"measurement": "MIC ratio XL1 blue/pET9d to XL1 blue", "setting": "E. coli XL1 blue/pET9d; [4]", "result": 16},
      {"measurement": "kcat", "setting": "APH(3′)-IIIa enzyme", "result": "2.4 ± 0.1", "unit": "s⁻¹"},
      {"measurement": "MIC", "setting": "E. coli ATCC 25922", "result": 48, "unit": "mg/L"},
      {"measurement": "TopoIV IC50", "setting": "E. coli TopoIV", "result": "inactive"},
      {"measurement": "MIC", "setting": "E. coli AG100B", "result": 384, "unit": "mg/L"},
      {"measurement": "MIC", "setting": "E. coli ATCC 35218; ATCC35218, read-out: MIC 1st passage, E.coli ATCC 35218", "result": 12, "unit": "mg/L"},
      {"measurement": "MIC", "setting": "E. coli ATCC 35218; ATCC35218, read-out: MIC 15th passage, E.coli ATCC 35218", "result": 48, "unit": "mg/L"},
      {"measurement": "Ratio (relative MIC) 15th/1st passage, E.coli ATCC 35218", "setting": "E. coli ATCC 35218; [5]", "result": 4},
      {"measurement": "MIC", "setting": "B. subtilis ATCC 6633 [3]; ATCC6633, read-out: MIC 1st passage, B.subtilis ATCC 6633", "result": 0.75, "unit": "mg/L"},
      {"measurement": "MIC", "setting": "B. subtilis ATCC 6633 [3]; ATCC6633, read-out: MIC 15th passage, B.subtilis ATCC 6633", "result": 6, "unit": "mg/L"},
      {"measurement": "Ratio (relative MIC) 15th/1st passage, B.subtilis ATCC 6633", "setting": "B. subtilis ATCC 6633 [3]; [5]", "result": 8}
    ]}
  ]
}
